Data on three compounds can be found in patent publication US11208412B2 (DAEGU-GYEONGBUK MEDICAL INNOVATION FOUNDATION, priority 2017, dated 2021).

Experiment in all cases: Kinase selectivity, DiscoverX scanMAX Kinase assay panel (% control)
What all share (format): binding

Experiment [1] concerns the target T1, kinases of the scanMAX Kinase assay panel (Homo sapiens, UniProt P36888).
T1 construct: purchased DiscoverX Co. (contract measurement) scanMAX Kinase assay panel
T1 sequence (P36888 27-993): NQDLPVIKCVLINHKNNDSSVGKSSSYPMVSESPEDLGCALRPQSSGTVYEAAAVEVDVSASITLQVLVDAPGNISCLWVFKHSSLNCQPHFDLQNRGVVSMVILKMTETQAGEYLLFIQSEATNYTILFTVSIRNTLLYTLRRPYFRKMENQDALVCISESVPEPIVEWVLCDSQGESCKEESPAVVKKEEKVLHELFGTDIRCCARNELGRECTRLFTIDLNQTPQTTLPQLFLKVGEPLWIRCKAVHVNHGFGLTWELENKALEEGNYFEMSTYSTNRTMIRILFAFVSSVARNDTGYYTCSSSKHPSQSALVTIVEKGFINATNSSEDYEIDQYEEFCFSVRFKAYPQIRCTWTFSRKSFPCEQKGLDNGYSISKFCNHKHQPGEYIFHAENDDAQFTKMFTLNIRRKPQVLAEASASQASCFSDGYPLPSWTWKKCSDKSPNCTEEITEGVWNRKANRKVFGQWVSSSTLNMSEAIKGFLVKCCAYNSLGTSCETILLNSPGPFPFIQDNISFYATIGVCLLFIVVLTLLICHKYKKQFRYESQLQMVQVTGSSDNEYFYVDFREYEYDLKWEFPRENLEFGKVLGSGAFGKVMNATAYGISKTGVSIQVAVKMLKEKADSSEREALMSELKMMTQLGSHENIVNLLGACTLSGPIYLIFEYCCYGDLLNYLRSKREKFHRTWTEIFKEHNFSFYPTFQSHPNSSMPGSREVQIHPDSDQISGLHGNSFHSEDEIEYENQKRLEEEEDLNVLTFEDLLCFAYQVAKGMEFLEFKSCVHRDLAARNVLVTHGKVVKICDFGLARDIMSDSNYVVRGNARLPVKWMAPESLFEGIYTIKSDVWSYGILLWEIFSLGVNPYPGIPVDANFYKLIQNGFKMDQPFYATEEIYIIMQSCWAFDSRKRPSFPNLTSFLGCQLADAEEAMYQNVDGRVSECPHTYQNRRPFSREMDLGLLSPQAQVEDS
As to conditions: 1 uM. In a few lines:
(§1)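 Single-point screen, 1 uM cpd in DMSO. % ctrl = (cpd − pos ctrl)/(neg ctrl − pos ctrl)×100; pos ctrl = 0%, DMSO neg ctrl = 100%. Hit cutoff <35%.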

For experiment [2], the target named is T2, kinases of the scanMAX Kinase assay panel (Homo sapiens, UniProt P54762).
T2 construct: purchased DiscoverX Co. (contract measurement) scanMAX Kinase assay panel
T2 sequence (P54762 18-984): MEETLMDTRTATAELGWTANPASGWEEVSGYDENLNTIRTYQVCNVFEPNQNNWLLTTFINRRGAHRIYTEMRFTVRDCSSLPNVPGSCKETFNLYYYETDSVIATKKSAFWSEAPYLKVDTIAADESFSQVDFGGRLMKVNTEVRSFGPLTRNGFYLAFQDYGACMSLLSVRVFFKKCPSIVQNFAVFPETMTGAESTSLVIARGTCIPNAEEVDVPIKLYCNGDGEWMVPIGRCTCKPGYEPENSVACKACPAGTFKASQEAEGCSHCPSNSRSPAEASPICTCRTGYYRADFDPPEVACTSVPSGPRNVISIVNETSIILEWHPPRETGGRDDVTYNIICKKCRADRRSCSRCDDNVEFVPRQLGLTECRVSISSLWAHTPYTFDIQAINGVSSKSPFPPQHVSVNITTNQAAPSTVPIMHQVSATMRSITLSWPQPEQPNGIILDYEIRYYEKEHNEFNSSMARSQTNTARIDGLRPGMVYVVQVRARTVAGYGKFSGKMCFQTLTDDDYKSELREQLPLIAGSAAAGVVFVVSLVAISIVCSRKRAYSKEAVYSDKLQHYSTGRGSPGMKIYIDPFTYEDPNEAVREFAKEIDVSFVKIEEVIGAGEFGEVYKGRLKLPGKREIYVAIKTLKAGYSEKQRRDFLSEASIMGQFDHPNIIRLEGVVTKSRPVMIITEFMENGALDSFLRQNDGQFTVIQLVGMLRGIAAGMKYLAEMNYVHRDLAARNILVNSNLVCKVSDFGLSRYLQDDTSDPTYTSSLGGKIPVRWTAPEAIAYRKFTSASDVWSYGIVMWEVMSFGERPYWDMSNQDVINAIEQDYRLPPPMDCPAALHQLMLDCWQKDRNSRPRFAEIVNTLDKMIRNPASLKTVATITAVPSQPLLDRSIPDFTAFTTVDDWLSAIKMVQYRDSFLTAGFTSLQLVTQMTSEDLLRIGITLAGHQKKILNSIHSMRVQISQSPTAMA
The settings on record: EPHB1; 1 uM. An outline of the steps:
as §1

The target of experiment [3] is T3, kinases of the scanMAX Kinase assay panel (Homo sapiens, UniProt Q86UE8).
T3 construct: purchased DiscoverX Co. (contract measurement) scanMAX Kinase assay panel
T3 sequence (Q86UE8 whole entry): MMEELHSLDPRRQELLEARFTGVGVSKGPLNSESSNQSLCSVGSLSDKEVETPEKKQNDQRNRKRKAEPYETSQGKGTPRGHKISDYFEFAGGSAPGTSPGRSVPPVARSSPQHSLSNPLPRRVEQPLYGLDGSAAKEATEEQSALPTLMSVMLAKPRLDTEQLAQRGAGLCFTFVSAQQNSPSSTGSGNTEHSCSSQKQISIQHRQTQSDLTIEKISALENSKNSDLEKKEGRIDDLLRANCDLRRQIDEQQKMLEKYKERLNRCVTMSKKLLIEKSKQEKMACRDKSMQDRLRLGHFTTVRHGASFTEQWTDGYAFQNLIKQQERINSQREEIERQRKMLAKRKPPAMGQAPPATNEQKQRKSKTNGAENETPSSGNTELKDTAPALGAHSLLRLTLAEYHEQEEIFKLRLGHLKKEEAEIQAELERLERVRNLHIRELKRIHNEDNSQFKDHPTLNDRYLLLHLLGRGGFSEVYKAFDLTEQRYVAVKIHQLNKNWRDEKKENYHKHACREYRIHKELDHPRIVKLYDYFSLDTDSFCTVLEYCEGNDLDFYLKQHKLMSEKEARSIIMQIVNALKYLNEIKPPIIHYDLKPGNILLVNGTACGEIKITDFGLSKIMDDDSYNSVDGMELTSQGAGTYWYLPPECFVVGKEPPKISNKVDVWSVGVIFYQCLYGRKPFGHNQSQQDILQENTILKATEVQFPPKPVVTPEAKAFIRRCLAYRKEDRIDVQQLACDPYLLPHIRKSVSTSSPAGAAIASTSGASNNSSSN
As to conditions: kinase TLK2; 1 uM in DMSO. An outline of the steps: as §1

For `CNc1nc(Nc2ccc(C(=O)N3CCOCC3)cc2OC)nc2[nH]cc(C#N)c12` [Example 1, 2-((2-methoxy-4-(morpholine-4-carbonyl)phenyl)amino)-4-(methylamino)-7H-pyrrolo[2,3-d]pyrimidine-5-carbonitrile], the remaining binding at 1 µM in experiment [1] (FLT3-autoinhibited) stood at 45%; in experiment [1] (FLT3), 86%; in experiment [2] it was 100%; in experiment [3], 95%.

As for `CC1(Nc2nc(Nc3cnn([C@H]4CCN(C5COC5)C[C@@H]4F)c3Cl)nc3[nH]cc(C#N)c23)CC1` [Example 52, 2-((5-chloro-1-((3S,4S)-3-fluoro-1-(oxetane-3-yl)piperidine-4-yl)-1H-pyrazole-4-yl)amino)((1-methylcyclopropyl)amino)-7H-pyrrolo[2,3-d]pyrimidine-5-carbonitrile], the remaining binding at 1 µM in experiment [1] (FLT3-autoinhibited) worked out at 0.3%; in experiment [1] (FLT3) it was 0.05%; in experiment [2], 41%; in experiment [3] it was 42%.

Regarding `CCNc1nc(Nc2ccc(C(=O)N3CCC(N4CCOCC4)CC3)cc2OC)nc2[nH]cc(C(F)(F)F)c12` [Example 104, (4-((4-(ethylamino)-5-(trifluoromethyl)-7H-pyrrolo[2,3-d]pyrimidine-2-yl)amino)-3-methoxyphenyl)(4-morpholinopiperidine-1-yl)methanone], the remaining binding at 1 µM in experiment [1] (FLT3-autoinhibited) was 76%; in experiment [1] (FLT3) it was 65%; in experiment [2], 100%; in experiment [3], 93%.
